Tests used:
[1] = molecular target: T1, PARG (Homo sapiens, UniProt Q86W56); assay: Inhibition of PARG cellular assay (PAR foci in HeLa cells after MMS); assay type: cell-based; parameters: endogenous in cells; host or cells: HeLa; conditions: compound 1 h then MMS 1 h
Procedure, shortened: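 HeLa cells pretreated with compound for 1 h, then given MMS for a further 1 h, fixed and immunostained for PAR polymer. High-content imaging quantified nuclear PAR foci intensity (PAR Foci IC50) and percent cells with foci signal >1.3 (PAR % positive IC50).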

[2] = system: HCC1806-XRCC1 KD (knock down) cells; assay: Cellular viability assay (Cell Titer-Glo); assay type: cell-based; conditions: 96 h, HCC1806-shXRCC1 cells, 4 days of incubation, read-out: PARGi cell viability
Protocol: HCC1806-XRCC1 KD (knock down) cells were plated at 2000 cells/well in 96-well white plates with clear flat bottom. After 24 hours, the compounds of the disclosure were added starting at 30 μM for a 9-point dose response curve at 1:3 dilution. The compounds of the disclosure were added by Tecan digital dispenser excluding the outermost wells of the plate. All treatments were done in duplicates. After 4 days of incubation, 50 ul of Cell Titer-Glo (Promega) was added per well. After incubation with the reagent for 15 minutes, luminescence was read using a plate reader (TECAN). Average values of DMSO treated wells in a plate was calculated. All data points were normalized to that of the average DMSO value. The % of control for each sample compared to DMSO treated control samples. Curves are fit as % of control vs. log [compound concentration] using a 4 parameter inhibition model (Levenberg-Marquardt algorithm):
Fit=(A+((B−A)/(1+((C/x)^D))))

[3] = molecular target: T1, PARG; assay: Inhibition of PARG enzymatic assay (TR-FRET enzymatic IC50 assay); assay type: biochemical; parameters: purchased Peak Proteins; conditions: hPARG 250 pM, biotinylated-PARylated PARP substrate 30 nM
Procedure, shortened: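 Compound preincubated 1 h with 250 pM His-tagged hPARG, then 30 nM biotinylated PARylated hPARP1 substrate added for 10 min; buffer 50 mM Tris-HCl pH 7.4, EDTA/EGTA, 1 mM DTT, 23° C. TR-FRET read after 1 h with anti-His ULight antibody and streptavidin-europium; inhibition scaled between DMSO and no-enzyme controls.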

T1 sequence (Q86W56 whole entry): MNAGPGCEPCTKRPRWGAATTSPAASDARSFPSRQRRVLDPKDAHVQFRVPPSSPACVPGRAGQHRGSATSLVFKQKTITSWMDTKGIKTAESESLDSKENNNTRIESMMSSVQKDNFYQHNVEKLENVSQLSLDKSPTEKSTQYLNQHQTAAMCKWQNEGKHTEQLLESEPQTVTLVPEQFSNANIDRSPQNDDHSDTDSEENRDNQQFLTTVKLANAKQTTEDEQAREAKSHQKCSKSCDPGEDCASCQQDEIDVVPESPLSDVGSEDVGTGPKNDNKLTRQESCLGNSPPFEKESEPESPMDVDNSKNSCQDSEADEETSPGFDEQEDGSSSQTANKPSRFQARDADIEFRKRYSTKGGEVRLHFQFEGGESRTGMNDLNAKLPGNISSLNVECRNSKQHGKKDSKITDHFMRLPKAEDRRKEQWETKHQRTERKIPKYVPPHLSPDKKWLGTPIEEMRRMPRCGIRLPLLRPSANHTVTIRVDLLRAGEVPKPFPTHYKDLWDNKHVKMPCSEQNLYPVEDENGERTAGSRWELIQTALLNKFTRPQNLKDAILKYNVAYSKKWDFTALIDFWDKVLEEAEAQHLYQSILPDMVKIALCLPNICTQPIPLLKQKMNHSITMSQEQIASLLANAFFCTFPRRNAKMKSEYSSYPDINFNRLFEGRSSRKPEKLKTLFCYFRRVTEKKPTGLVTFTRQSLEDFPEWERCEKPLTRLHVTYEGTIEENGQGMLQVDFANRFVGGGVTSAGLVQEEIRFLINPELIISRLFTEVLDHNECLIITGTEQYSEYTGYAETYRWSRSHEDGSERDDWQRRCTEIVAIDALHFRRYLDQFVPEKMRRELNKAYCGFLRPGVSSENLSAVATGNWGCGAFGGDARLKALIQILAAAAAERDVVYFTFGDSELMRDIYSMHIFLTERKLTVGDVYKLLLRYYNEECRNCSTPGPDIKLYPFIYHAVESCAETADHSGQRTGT

Row | Compound | IC50 [1] [nM] | IC50 [2] [nM] | IC50 [3] [nM]
1 | CN(C)C(=O)N1CCN(c2cc(S(=O)(=O)NC3(C)CC3)cc3c2cnn3-c2nnc(C(F)F)s2)CC1 [Example 24, [4-(1-[5-(difluoromethyl)(1,3,4-thiadiazol-2-yl)]-6-{[(methylcyclopropyl)amino]sulfonyl}(1H-indazol-4-yl))piperazinyl]-N,N-dimethylcarboxamide] | ≤ 100 | < 1000 | ≤ 100
2 | N#CC1(NS(=O)(=O)c2cc(C3=CCC4(CC3)COC4)c3cnn(-c4nnc(C(F)F)s4)c3c2)CC1 [Example 7, 1-[({1-[5-(difluoromethyl)(1,3,4-thiadiazol-2-yl)]-4-(2-oxaspiro[3.5]non-6-en-7-yl)-1H-indazol-6-yl}sulfonyl)amino]cyclopropanecarbonitrile] | 300 to 1000 | 1000 to 10000 | 300 to 1000
3 | N#CC1(NS(=O)(=O)c2cc(N3CC4(COC4)C3)c3cnn(-c4nnc(C(F)F)s4)c3c2)CC1 [Example 45, 1-[({1-[5-(difluoromethyl)(1,3,4-thiadiazol-2-yl)]-4-(6-oxa-2-azaspiro[3.3]hept-2-yl)-1H-indazol-6-yl}sulfonyl)amino]cyclopropanecarbonitrile] | 300 to 1000 | 20000 to 30000 | 100 to 300
4 | COc1nccc(-c2cc(S(=O)(=O)NC3(C#N)CC3)cc3c2cnn3-c2nnc(C(F)F)s2)n1 [Example 21, 1-[({1-[5-(difluoromethyl)(1,3,4-thiadiazol-2-yl)]-4-(2-methoxypyrimidin-4-yl)-1H-indazol-6-yl}sulfonyl)amino]cyclopropanecarbonitrile] | 300 to 1000 | 1000 to 10000 | 100 to 300
5 | CC(C)C(=O)N1CCN(c2cc(S(=O)(=O)NC3(C#N)CC3)cc3c2cnn3-c2nnc(C(F)F)s2)CC1 [Example 38, 1-[({1-[5-(difluoromethyl)(1,3,4-thiadiazol-2-yl)]-4-[4-(2-methylpropanoyl)piperazinyl]-1H-indazol-6-yl}sulfonyl)amino]cyclopropanecarbonitrile] | ≤ 100 | < 1000 | ≤ 100
6 | N#CC1(NS(=O)(=O)c2cc(-c3ccncn3)c3cnn(-c4nnc(C(F)F)s4)c3c2)CC1 [Example 15, 1-[({1-[5-(difluoromethyl)(1,3,4-thiadiazol-2-yl)]-4-pyrimidin-4-yl-1H-indazol-6-yl}sulfonyl)amino]cyclopropanecarbonitrile] | 300 to 1000 | 1000 to 10000 | ≤ 100
7 | CN1CCC2(CCN(c3cc(S(=O)(=O)NC4(C#N)CC4)cc4c3cnn4-c3nnc(C(F)F)s3)CC2)C1 [Example 46, 1-[({1-[5-(difluoromethyl)(1,3,4-thiadiazol-2-yl)]-4-(2-methyl-2,8-diazaspiro[4.5]dec-8-yl)-1H-indazol-6-yl}sulfonyl)amino]cyclopropanecarbonitrile] | 1000 to 10000 | 1000 to 10000 | 100 to 300
8 | N#CC1(NS(=O)(=O)c2cc(-c3ccccc3)c3cnn(-c4nnc(C(F)F)s4)c3c2)CC1 [Example 1, 1-[({1-[5-(difluoromethyl)(1,3,4-thiadiazol-2-yl)]-4-phenyl-1H-indazol-6-yl}sulfonyl)amino]cyclopropanecarbonitrile] | 1000 to 10000 | 20000 to 30000 | 1000 to 10000
9 | CC(=O)N1CCN(c2cc(S(=O)(=O)NC3(C#N)CC3)cc3c2cnn3-c2nnc(C(F)F)s2)CC1 [Example 50, 1-[({4-(4-acetylpiperazinyl)-1-[5-(difluoromethyl)(1,3,4-thiadiazol-2-yl)]-1H-indazol-6-yl}sulfonyl)amino]cyclopropanecarbonitrile] | 300 to 1000 | 1000 to 10000 | ≤ 100

Now from value to compound:

Row | IC50 [1] [nM] | IC50 [2] [nM] | IC50 [3] [nM] | Compound
10 | 100 to 300 | 1000 to 10000 | ≤ 100 | N#CC1(NS(=O)(=O)c2cc(N3CCN(C(=O)C4CCN(CC(F)F)CC4)CC3)c3cnn(-c4nnc(C(F)F)s4)c3c2)CC1 [Example 107, 1-({[4-(4-{[1-(2,2-difluoroethyl)(4-piperidyl)]carbonyl}piperazinyl)-1-[5-(difluoro-methyl)(1,3,4-thiadiazol-2-yl)]-1H-indazol-6-yl]sulfonyl}amino)cyclopropane carbonitrile]
11 | ≤ 100 | < 1000 | ≤ 100 | CC1(C(=O)N2CCN(c3cc(S(=O)(=O)NC4(C#N)CC4)cc4c3cnn4-c3nnc(C(F)F)s3)CC2)CC1 [Example 111, 1-{[(1-[5-(difluoromethyl)(1,3,4-thiadiazol-2-yl)]-4-{4-[(methylcyclopropyl)carbonyl]piperazinyl}-1H-indazol-6-yl)sulfonyl]amino}cyclopropanecarbonitrile]
12 | 300 to 1000 | 10000 to 20000 | 100 to 300 | CN(C)C(=O)C1CCN(c2cc(S(=O)(=O)NC3(C#N)CC3)cc3c2cnn3-c2nnc(C(F)F)s2)CC1 [Example 51, [1-(1-[5-(difluoromethyl)(1,3,4-thiadiazol-2-yl)]-6-{[(cyanocyclopropyl)amino]sulfonyl}(1H-indazol-4-yl))(4-piperidyl)]-N,N-dimethylcarboxamide]
13 | ≤ 100 | < 1000 | ≤ 100 | C[C@@H]1CN(c2cc(S(=O)(=O)NC3(C#N)CC3)cc3c2cnn3-c2nnc(C(F)F)s2)CCN1C(=O)C1(C)CCC1 [Example 109, 1-{[(4-{(3R)-3-methyl-4-[(methylcyclobutyl)carbonyl]piperazinyl}-1-[5-(difluoro-methyl)(1,3,4-thiadiazol-2-yl)]-1H-indazol-6-yl)sulfonyl]amino}cyclopropane carbonitrile]
14 | 100 to 300 | 1000 to 10000 | ≤ 100 | CN1CC2CN(c3cc(S(=O)(=O)NC4(C#N)CC4)cc4c3cnn4-c3nnc(C(F)F)s3)CCN2C1=O (single isomer, unassigned) [Example 71, 1-[({4-(8-methyl-7-oxo-3,6,8-triazabicyclo[4.3.0]non-3-yl)-1-[5-(difluoromethyl)-(1,3,4-thiadiazol-2-yl)]-1H-indazol-6-yl}sulfonyl)amino]cyclopropane carbonitrile]
15 | 100 to 300 | 1000 to 10000 | 300 to 1000 | Cc1cccnc1N1CCN(c2cc(S(=O)(=O)NC3(C#N)CC3)cc3c2cnn3-c2nnc(C(F)F)s2)CC1 [Example 79, 1-[({1-[5-(difluoromethyl)(1,3,4-thiadiazol-2-yl)]-4-[4-(3-methyl(2-pyridyl))-piperazinyl]-1H-indazol-6-yl}sulfonyl)amino]cyclopropanecarbonitrile]
16 | ≤ 100 | < 1000 | ≤ 100 | CCC(C)C(=O)N1CCN(c2cc(S(=O)(=O)NC3(C#N)CC3)cc3c2cnn3-c2nnc(C(F)F)s2)CC1 (stereo not drawn) [Example 113, 1-[({1-[5-(difluoromethyl)(1,3,4-thiadiazol-2-yl)]-4-[4-(2-methylbutanoyl)piperazinyl]-1H-indazol-6-yl}sulfonyl)amino]cyclopropanecarbonitrile]
17 | ≤ 100 | < 1000 | ≤ 100 | CCCN(C)C(=O)N1CCN(c2cc(S(=O)(=O)NC3(C#N)CC3)cc3c2cnn3-c2nnc(C(F)F)s2)CC1 [Example 77, [4-(1-[5-(difluoromethyl)(1,3,4-thiadiazol-2-yl)]-6-{[(cyanocyclopropyl)amino]sulfonyl}(1H-indazol-4-yl))piperazinyl]-N-methyl-N-propylcarboxamide]
18 | ≤ 100 | < 1000 | ≤ 100 | CN(CC(F)(F)F)C(=O)N1CCN(c2cc(S(=O)(=O)NC3(C#N)CC3)cc3c2cnn3-c2nnc(C(F)F)s2)CC1 [Example 86, [4-(1-[5-(difluoromethyl)(1,3,4-thiadiazol-2-yl)]-6-{[(cyanocyclopropyl)amino]sulfonyl}(1H-indazol-4-yl))piperazinyl]-N-methyl-N-(2,2,2-trifluoroethyl)carboxamide]
19 | 300 to 1000 | 1000 to 10000 | ≤ 100 | N#CC1(NS(=O)(=O)c2cc(N3CCN4C(=O)CC[C@H]4C3)c3cnn(-c4nnc(C(F)F)s4)c3c2)CC1 [Example 59, 1-[({4-((1S)-7-oxo-3,6-diazabicyclo[4.3.0]non-3-yl)-1-[5-(difluoromethyl)(1,3,4-thiadiazol-2-yl)]-1H-indazol-6-yl}sulfonyl)amino]cyclopropanecarbonitrile]
20 | 300 to 1000 | 1000 to 10000 | 300 to 1000 | N#CC1(NS(=O)(=O)c2cc(N3CCN(c4cccnc4)CC3)c3cnn(-c4nnc(C(F)F)s4)c3c2)CC1 [Example 94, 1-[({1-[5-(difluoromethyl)(1,3,4-thiadiazol-2-yl)]-4-(4-(3-pyridyl)piperazinyl)-1H-indazol-6-yl}sulfonyl)amino]cyclopropanecarbonitrile]
21 | ≤ 100 | 1000 to 10000 | ≤ 100 | N#CC1(NS(=O)(=O)c2cc(N3CCN(C(=O)C4CC4)CC3)c3cnn(-c4nnc(C(F)F)s4)c3c2)CC1 [Example 80, 1-[({1-[5-(difluoromethyl)(1,3,4-thiadiazol-2-yl)]-4-[4-(cyclopropylcarbonyl)piperazinyl]-1H-indazol-6-yl}sulfonyl)amino]cyclopropanecarbonitrile]

— patent US20220389003A1, “4-SUBSTITUTED INDOLE AND INDAZOLE SULFONAMIDO DERIVATIVES AS PARG INHIBITORS” (IDEAYA BIOSCIENCES, INC., priority 2019, published 2022)
